Data published in patent US20240116885A1, “BENZOTHIAZOLE AND QUINOLINE DERIVATIVES AND THEIR USE” (Shanghai Yao Yuan Biotechnology Co., Ltd., priority 2020, published 2024).

Tests used:
[1] = system: ALPK1-dependent NFκB reporter gene activation; test: NFκB gene reporter alkaline phosphatase assay in HEK293 G9 cells; assay type: cell-based; conditions: Homo sapiens; HEK293 G9 cells stimulated with D-glycero-D-manno-6-fluoro-heptose-1β-S-ADP
Experimental: An alkaline phosphatase reporter assay system was used to measure inhibition of ALPK1-dependent NFκB reporter gene activation. Briefly, HEK293 cells stably expressing an NF-kB reporter (referred to herein as “G9 cells”) were maintained in DMEM as described above. For the assay, cells were seeded into 96-well plates at a density of 10,000 cells/well in Freestyle™ 293 Expression Medium (ThermoFisher), and allowed to attach overnight. Cells were pretreated with serially diluted compounds for 30 min and then stimulated with D-glycero-D-manno-6-fluoro-heptose-1β-S-ADP. […] NFkB gene activation was detected using the chromogenic substrate, para-nitrophenyl phosphate (pNPP) according to the manufacturer's protocols (pNPP Phosphatase Assay, Beyotime Biotechnology).

ALPK1 = ALPK1 (Homo sapiens (Human), UniProt Q96QP1); test: ALPK1 in vitro kinase assay (HTRF, TIFA phosphorylation); assay type: biochemical; conditions: ADP-Heptose activated ALPK1
Experimental: ALPK1 kinase activity was measured in an in vitro assay using ADP-Heptose as the ALPK1 ligand and activator of its kinase activity and TIFA protein as the ALPK1 phosphorylation substrate. Since phosphorylated TIFA proteins oligomerize, Homogeneous Time-Resolved Fluorescence (HTRF) was used to measure protein:protein interaction between HA-tagged TIFA proteins as an indicator of TIFA phosphorylation.
In brief, dose-response studies were performed with HEK293 cells cultured in Dulbecco's Modified Eagle Medium (DMEM) supplemented 10% fetal bovine serum (FBS, Hyclone™) containing antibiotics (pen/strep, G418) in 384-well assay plates. Each well contained 0.1 mg TIFA, ALPK1 (2 nM final concentration in reaction mixture) and kinase buffer (100 mM of HEPES pH 7.4, 4 mM DTT, 40 mM MgCl2, 20 mM of β-Glycerol phosphate disodium salt, 0.4 mM of Na3VO4, 0.16 mg/mL). Titrations of the test compounds were prepared in dimethylsulphoxide (DMSO). The reaction was initiated by addition of ATP and ADP-Heptose.
For HTRF, samples were incubated with a Tb cryptate-labeled anti-HA antibody for capturing HA-tagged proteins according to the manufacturer's instructions (PerkinElmer™, CisBio™) and the fluorescence signal was quantified (Tecan Infinite F NANO+). HTRF signals were calculated as the HTRF ratio (ratio of fluorescence measured at 665 nm and 620 nm)×104 (thereby using the signal at 620 nm as an internal standard).
IC50 values were determined using 3- or 4-parameter logistic equation using GraphPad Prism version 6.00. The reference compound, A027, was used as a positive control for each plate.

ALPK1, sequence (Q96QP1 whole entry): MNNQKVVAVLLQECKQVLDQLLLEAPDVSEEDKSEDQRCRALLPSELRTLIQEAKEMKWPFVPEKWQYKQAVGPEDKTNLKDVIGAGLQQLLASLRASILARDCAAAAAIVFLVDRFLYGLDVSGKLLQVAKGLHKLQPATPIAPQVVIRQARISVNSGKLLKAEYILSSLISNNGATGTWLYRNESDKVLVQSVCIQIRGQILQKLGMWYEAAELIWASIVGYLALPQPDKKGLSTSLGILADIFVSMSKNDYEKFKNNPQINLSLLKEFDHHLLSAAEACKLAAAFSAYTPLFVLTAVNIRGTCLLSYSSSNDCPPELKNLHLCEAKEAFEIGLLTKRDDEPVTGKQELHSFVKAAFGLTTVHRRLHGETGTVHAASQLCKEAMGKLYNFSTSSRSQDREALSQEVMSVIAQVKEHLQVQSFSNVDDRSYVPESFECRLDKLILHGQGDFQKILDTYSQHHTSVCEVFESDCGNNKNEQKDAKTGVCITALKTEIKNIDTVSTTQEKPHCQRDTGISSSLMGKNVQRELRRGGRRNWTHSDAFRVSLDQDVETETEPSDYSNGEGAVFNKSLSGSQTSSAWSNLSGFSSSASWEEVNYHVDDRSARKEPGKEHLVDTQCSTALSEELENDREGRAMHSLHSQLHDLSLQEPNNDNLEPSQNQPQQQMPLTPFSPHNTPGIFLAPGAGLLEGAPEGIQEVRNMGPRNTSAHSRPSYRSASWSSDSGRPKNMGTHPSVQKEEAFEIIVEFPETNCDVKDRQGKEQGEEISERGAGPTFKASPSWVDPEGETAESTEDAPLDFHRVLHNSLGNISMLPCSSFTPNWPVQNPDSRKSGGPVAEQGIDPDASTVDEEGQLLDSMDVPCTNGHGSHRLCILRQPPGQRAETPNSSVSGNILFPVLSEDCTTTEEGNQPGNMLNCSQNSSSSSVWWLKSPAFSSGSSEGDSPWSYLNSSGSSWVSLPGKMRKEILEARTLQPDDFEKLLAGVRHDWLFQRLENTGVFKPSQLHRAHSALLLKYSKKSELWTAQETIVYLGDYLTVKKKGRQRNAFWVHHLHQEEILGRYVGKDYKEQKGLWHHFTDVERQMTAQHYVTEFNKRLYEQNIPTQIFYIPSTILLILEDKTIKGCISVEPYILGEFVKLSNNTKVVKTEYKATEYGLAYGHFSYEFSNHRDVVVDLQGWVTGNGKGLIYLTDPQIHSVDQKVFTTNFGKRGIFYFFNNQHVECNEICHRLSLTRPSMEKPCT

SMILES | IC50 [1] [nM] | IC50 (ALPK1) [nM]
CCN1CCN(c2cc(F)c(C(=O)Nc3nc4c(OC)cccc4s3)c(F)c2)CC1 [Compound T004, 4-(4-ethylpiperazin-1-yl)-2,6-difluoro-N-(4-methoxybenzo[d]thiazol-2-yl)benzamide] | 1980 | 131
COc1cccc2sc(NC(=O)c3c(F)cc(N4CCC(N)C4)cc3F)nc12 (stereo not shown) [Compound T026, 4-(3-aminopyrrolidin-1-yl)-2,6-difluoro-N-(4-methoxybenzo[d]thiazol-2-yl)benzamide] | 2380 | 125
COc1cccc2sc(NC(=O)c3c(F)cc(NCCN(C)C)cc3F)nc12 [Compound T013, 4-((2-(dimethylamino)ethyl)amino)-2,6-difluoro-N-(4-methoxybenzo[d]thiazol-2-yl)benzamide] | 5220 | 507
COC(=O)C1CCN(c2cc(F)c(C(=O)Nc3nc4c(OC)cccc4s3)c(F)c2)CC1 [Compound T011, methyl 1-(3,5-difluoro-4-((4-methoxybenzo[d]thiazol-2-yl)carbamoyl)phenyl)piperidine-4-carboxylate] | 6650 | 420
C#Cc1cccc2sc(NC(=O)c3c(F)cc(N4CCNC[C@H]4C)cc3F)nc12 [Compound T061, (R)-N-(4-ethynylbenzo[d]thiazol-2-yl)-2,6-difluoro-4-(2-methylpiperazin-1-yl)benzamide] | 300 | 30
COc1cccc2sc(NC(=O)c3c(F)cc(N4CCN(Cc5ccccc5)C(=O)C4)cc3F)nc12 [Compound T024, 4-(4-benzyl-3-oxopiperazin-1-yl)-2,6-difluoro-N-(4-methoxybenzo[d]thiazol-2-yl)benzamide] | 1150 | 321
O=C(Nc1nc2c(C3CC3)cccc2s1)c1c(F)cccc1F [Compound T012, N-(4-cyclopropylbenzo[d]thiazol-2-yl)-2,6-difluorobenzamide] | 5950 | 970
COc1cccc2sc(NC(=O)c3c(Cl)cc(N4CCNCC4)cc3Cl)nc12 [Compound T008, 2,6-dichloro-N-(4-methoxybenzo[d]thiazol-2-yl)-4-(piperazin-1-yl)benzamide] | 1950 | 57
COc1cccc2sc(NC(=O)c3c(F)cc(N4CCOCC4)cc3F)nc12 [Compound T022, 2,6-difluoro-N-(4-methoxybenzo[d]thiazol-2-yl)-4-morpholinobenzamide] | 2010 | 295
COc1cccc2ncc(NC(=O)c3c(F)cc(N4CCNCC4)cc3F)nc12 [Compound Q009, 2,6-difluoro-N-(8-methoxyquinoxalin-2-yl)-4-(piperazin-1-yl)benzamide] | 3720 | 178
COc1cc(F)cc2sc(NC(=O)c3c(F)cc(N4CCNCC4)cc3F)nc12 [Compound T030, 2,6-difluoro-N-(6-fluoro-4-methoxybenzo[d]thiazol-2-yl)-4-(piperazin-1-yl)benzamide] | 2220 | 318
O=C(Nc1nc2c(Cl)cccc2s1)c1c(F)cc(N2CCNCC2)cc1F [Compound T046, N-(4-chlorobenzo[d]thiazol-2-yl)-2,6-difluoro-4-(piperazin-1-yl)benzamide] | 1320 | 56
O=C(Nc1nc2c(Br)cccc2s1)c1c(F)cc(CN2CCNCC2)cc1F [Compound T020, N-(4-bromobenzo[d]thiazol-2-yl)-2,6-difluoro-4-(piperazin-1-ylmethyl)benzamide] | 1570 | 100
COc1cccc2sc(NC(=O)c3c(F)cc(N4CCNCC4)cc3Cl)nc12 [Compound T010, 2-chloro-6-fluoro-N-(4-methoxybenzo[d]thiazol-2-yl)-4-(piperazin-1-yl)benzamide] | 1640 | 49
COc1cccc2sc(NC(=O)c3c(F)cc(N4CCC(O)C4)cc3F)nc12 (stereo not shown) [Compound T027, 2,6-difluoro-4-(3-hydroxypyrrolidin-1-yl)-N-(4-methoxybenzo[d]thiazol-2-yl)benzamide] | 3650 | 1170
COc1cccc2sc(NC(=O)c3c(F)cc(N4CCC(O)CC4)cc3F)nc12 [Compound T028, 2,6-difluoro-4-(4-hydroxypiperidin-1-yl)-N-(4-methoxybenzo[d]thiazol-2-yl)benzamide] | 1490 | 248
COc1cccc2sc(NC(=O)c3c(F)cc(NCCO)cc3F)nc12 [Compound T023, 2,6-difluoro-4-((2-hydroxyethyl)amino)-N-(4-methoxybenzo[d]thiazol-2-yl)benzamide] | 4300 | 289
COc1cccc2ccc(NC(=O)c3c(F)cc(N4CCN(C)CC4)cc3F)nc12 [Compound Q002, 2,6-difluoro-N-(8-methoxyquinolin-2-yl)-4-(4-methylpiperazin-1-yl)benzamide] | 2300 | 157
O=C(Nc1nc2c(Br)cccc2s1)c1c(F)ccc(N2CCNCC2)c1F [Compound T016, N-(4-bromobenzo[d]thiazol-2-yl)-2,6-difluoro-3-(piperazin-1-yl)benzamide] | 2220 | 47
C#Cc1cccc2sc(NC(=O)c3c(F)cc(N4CCN(C(N)=O)CC4)cc3F)nc12 [Compound T055, 4-(4-((4-ethynylbenzo[d]thiazol-2-yl)carbamoyl)-3,5-difluorophenyl)piperazine-1-carboxamide] | 2150 | 126
CC#Cc1cccc2sc(NC(=O)c3c(F)cc(N4CCNCC4)cc3F)nc12 [Compound T049, 2,6-difluoro-4-(piperazin-1-yl)-N-(4-(prop-1-yn-1-yl)benzo[d]thiazol-2-yl)benzamide] | 2100 | 43
O=C(Nc1nc2c(O)cccc2s1)c1c(F)cc(N2CCNCC2)cc1F [Compound T045, 2,6-difluoro-N-(4-hydroxybenzo[d]thiazol-2-yl)-4-(piperazin-1-yl)benzamide] | 4150 | 1650
C#Cc1cccc2sc(NC(=O)c3c(F)cc(N4CC[C@@H](N)C4)cc3F)nc12 [Compound T053, (R)-4-(3-aminopyrrolidin-1-yl)-N-(4-ethynylbenzo[d]thiazol-2-yl)-2,6-difluorobenzamide] | 890 | 83
C#Cc1cccc2sc(NC(=O)c3c(F)cc(N4CCNCC4C(C)C)cc3F)nc12 (stereo not shown) [Compound T051, N-(4-ethynylbenzo[d]thiazol-2-yl)-2,6-difluoro-4-(2-isopropylpiperazin-1-yl)benzamide] | 1590 | 56
COc1cccc2c(C)cc(NC(=O)c3c(F)cc(N4CCNCC4)cc3F)nc12 [Compound Q008, 2,6-difluoro-N-(8-methoxy-4-methylquinolin-2-yl)-4-(piperazin-1-yl)benzamide] | 2920 | 149
C#Cc1cccc2sc(NC(=O)c3c(F)cc(N4CCNCC4CC)cc3F)nc12 (stereo not shown) [Compound T052, 4-(2-ethylpiperazin-1-yl)-N-(4-ethynylbenzo[d]thiazol-2-yl)-2,6-difluorobenzamide] | 1320 | 58
